Laboratory results taken from PMC8667925, “New 1,2,4-oxadiazole derivatives with positive mGlu4 receptor modulation activity and antipsychotic-like properties” (Journal of Enzyme Inhibition and Medicinal Chemistry, 2021).
“Also recorded” adds a separate entry of the source. Where two headings read alike, the source gives them in different places. Marks after values point to notes of the source that are not given here.

Legend:
mGlu4 receptor [1] = conditions: cited from earlier work
[2] = tested on: untransfected cells of the T-REx 293 line; test: forskolin-induced cAMP accumulation in untransfected (mock) cells, control experiment; assay type: cell-based; conditions: untransfected T-REx 293 cells
Experimental: 2. In vitro mGlu receptor selectivity profile
Figure S1. Activity of compounds 34, 37, 49, 52, 60 and 62 in forskolin -induced cAMP accumulation in untransfected cells of the T-REx 293 line. Similar to reference mGlu4 receptor […]
cAMP assay in the mock T-REx 293 cell line. […]
receptor used as reference drug) tested at a concentration of 10 μM in NAM mode (in the presence of EC80 concentration of L-Glu (30 μM)) by the cAMP accumulation assay in cells expressing mGlu4 receptor. […]

mGlu4 receptor [3] = target: T1, mGlu4 receptor (Homo sapiens, UniProt Q14833); test: forskolin-stimulated cAMP assay, PAM mode (EC20 of L-Glu), T-REx 293 cells; assay type: cell-based; conditions: SEM where given; for EC50 / Emax: PAM mode; for EC50: EC20 (3 µM) L-Glu, T-REx 293 cells expressing human mGlu4 receptor; for Emax: T-REx-293, human mGlu4, read-out: GluMax; for Fold shift of L-Glu dose-response curve: in the presence of 10 µM of compound
T1 construct: mGlu4 receptor NM_000841, mGlu7 receptor NM_000844.2, and mGlu8 receptor NM_000845; expressed in transfected cells; host or cells: T-REx 293
T1 sequence (Q14833 33-912): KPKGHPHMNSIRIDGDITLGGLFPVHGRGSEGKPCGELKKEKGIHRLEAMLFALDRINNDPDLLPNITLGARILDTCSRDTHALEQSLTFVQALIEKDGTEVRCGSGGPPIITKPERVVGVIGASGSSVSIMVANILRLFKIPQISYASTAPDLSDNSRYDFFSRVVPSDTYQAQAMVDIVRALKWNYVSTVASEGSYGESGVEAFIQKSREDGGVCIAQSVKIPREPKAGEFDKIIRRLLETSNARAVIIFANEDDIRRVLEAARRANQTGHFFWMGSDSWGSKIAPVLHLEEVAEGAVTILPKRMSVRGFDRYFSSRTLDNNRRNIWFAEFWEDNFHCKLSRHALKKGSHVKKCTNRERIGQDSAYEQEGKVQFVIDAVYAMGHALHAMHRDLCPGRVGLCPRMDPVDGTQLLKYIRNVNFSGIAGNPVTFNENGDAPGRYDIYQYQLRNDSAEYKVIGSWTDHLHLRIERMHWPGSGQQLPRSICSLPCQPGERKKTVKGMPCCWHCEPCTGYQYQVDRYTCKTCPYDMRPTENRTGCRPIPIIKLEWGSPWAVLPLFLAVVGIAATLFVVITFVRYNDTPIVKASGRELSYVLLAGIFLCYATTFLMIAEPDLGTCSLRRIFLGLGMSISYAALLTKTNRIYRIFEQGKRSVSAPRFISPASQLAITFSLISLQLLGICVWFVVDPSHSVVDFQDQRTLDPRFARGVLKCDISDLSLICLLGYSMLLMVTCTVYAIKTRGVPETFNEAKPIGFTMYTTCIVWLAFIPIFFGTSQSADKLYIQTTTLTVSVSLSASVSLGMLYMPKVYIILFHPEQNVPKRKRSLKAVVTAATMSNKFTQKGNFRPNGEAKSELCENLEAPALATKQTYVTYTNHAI
Experimental: The activity of the compounds was assessed in vitro in a forskolin-stimulated cAMP assay in T-REx 293 cells expressing human mGlu4 receptors in the presence of an EC20 concentration of L-Glu; a PAM was identified if it potentiated cAMP inhibition by the Gi/o-dependent pathway of mGlu4 receptor activation; i.e. if it was able to produce a leftward shift in the potency of the endogenous agonist.
(§1) Determination of the intracellular cAMP through a homogeneous time-resolved fluorescence (HTRF) cAMP dynamic 2 kit from Cisbio (Codolet, France) was described previously by Chruścicka et al.[91]. Briefly, cells were grown in DMEM supplemented with 10% foetal bovine serum (FBS) (tetracycline free). Forty-eight hours before the experiments, mGlu receptor expression was induced by the addition of 0.75 µg/mL tetracycline. Twenty hours before the experiment, FBS and L-Glu were removed from the medium. Thereafter, the cells were scraped and centrifuged. A cell pellet was suspended in Hanks-HEPES (130 mM NaCl, 5.4 mM KCl, 1.8 mM CaCl2, 0.8 mM MgSO4, 0.9 mM NaH2PO4, 20 mM HEPES, and 3.25 mM glucose; pH 7.4). Then, the cell suspension was incubated in the presence of 10 µM forskolin (or 3 µM forskolin for mGlu7 receptor), the agonist L-glutamate and a compound for 5 min. Next, 10 µl of the cell suspension was mixed with 5 µl of cAMP-d2 conjugate and 5 µL of anti-cAMP cryptate conjugate. After 1 h of incubation at rt, the fluorescence at 620 nm and 665 nm was read (Tecan Infinite M1000). The results were calculated as the 665 nm/620 nm ratio multiplied by 10^4. Each sample was prepared in triplicate.
Statistical calculations were performed using GraphPad Prism 5.04 software (GraphPad Software, La Jolla, CA, USA). The curves were fitted to a 3-parametric logistic equation, allowing for the determination of EC50 values. Each data point was analysed in triplicate.

mGlu4 receptor [4] = target: T1, mGlu4 receptor; test: forskolin-induced cAMP assay, agonist mode, T-REx 293 cells; assay type: cell-based
Experimental: (§2) The compounds were tested in the agonist, PAM (in the presence of EC20 concentration of L-Glu) or NAM (with EC80 of L-Glu) modes of forskolin-induced cAMP using T-REx 293 cells expressing the protein of a given receptor.
as §1

mGlu7 receptor = target: T2, mGlu7 receptor (Homo sapiens, UniProt Q14831); test: cAMP accumulation assay in cells expressing mGlu7 receptor (agonist, PAM, NAM modes); assay type: cell-based; conditions: 10 µM, agonist mode
T2 construct: mGlu4 receptor NM_000841, mGlu7 receptor NM_000844.2, and mGlu8 receptor NM_000845; expressed in transfected cells; host or cells: T-REx 293
T2 sequence (Q14831 35-915): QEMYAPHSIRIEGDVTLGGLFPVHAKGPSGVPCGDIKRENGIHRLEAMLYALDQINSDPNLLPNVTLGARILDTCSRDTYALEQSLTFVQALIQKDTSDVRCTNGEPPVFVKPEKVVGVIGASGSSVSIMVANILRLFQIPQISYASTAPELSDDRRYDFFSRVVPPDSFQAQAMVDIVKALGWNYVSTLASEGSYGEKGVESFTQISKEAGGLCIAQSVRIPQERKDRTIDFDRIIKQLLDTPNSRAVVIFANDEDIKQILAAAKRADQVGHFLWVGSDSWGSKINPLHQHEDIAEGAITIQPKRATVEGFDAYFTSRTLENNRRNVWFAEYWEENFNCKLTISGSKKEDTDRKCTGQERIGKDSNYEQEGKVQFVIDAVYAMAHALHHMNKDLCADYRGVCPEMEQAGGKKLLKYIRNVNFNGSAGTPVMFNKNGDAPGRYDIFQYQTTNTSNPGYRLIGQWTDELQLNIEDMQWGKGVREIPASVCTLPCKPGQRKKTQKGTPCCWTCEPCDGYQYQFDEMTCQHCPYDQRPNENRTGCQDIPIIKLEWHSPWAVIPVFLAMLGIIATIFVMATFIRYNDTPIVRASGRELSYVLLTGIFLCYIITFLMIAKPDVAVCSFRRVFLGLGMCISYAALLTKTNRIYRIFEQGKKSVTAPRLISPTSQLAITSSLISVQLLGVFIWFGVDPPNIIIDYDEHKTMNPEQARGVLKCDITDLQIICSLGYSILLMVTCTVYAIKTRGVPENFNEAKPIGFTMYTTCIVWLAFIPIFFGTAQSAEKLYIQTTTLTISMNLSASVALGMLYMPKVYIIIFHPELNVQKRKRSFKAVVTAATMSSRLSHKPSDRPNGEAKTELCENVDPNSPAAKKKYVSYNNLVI
Experimental: as §2
(§3) Figure 4. The activity of compounds 34, 37, 49, 52, 60, 62 and reference drugs MMPIP (a selective NAM of mGlu7 receptor) and AZ12216052 (a PAM of mGlu8 receptor) tested at a concentration of 10 μM in the cAMP accumulation assay in cells expressing mGlu7 and mGlu8 receptors. The percent activity refers to two extreme FRET signals: 0% corresponds to forskolin treatment alone and 100% to maximal FRET signal for the control cells (without any treatment). A/D – agonistic activity; B/E – PAM activity measured in the presence of L-Glu at the EC20 concentration (0.1 mM for mGlu7 receptor, and 1 μM for mGlu8 receptor); C/F – NAM activity measured in the presence of L-Glu at the EC80 concentration (1 mM for mGlu7 receptor, 10 μM for Glu8 receptor).
as §1

mGlu8 receptor = target: T3, mGlu8 receptor (Homo sapiens, UniProt O00222); test: cAMP accumulation assay in cells expressing mGlu8 receptor (agonist, PAM, NAM modes); assay type: cell-based; conditions: 10 µM, agonist mode
T3 construct: mGlu4 receptor NM_000841, mGlu7 receptor NM_000844.2, and mGlu8 receptor NM_000845; expressed in transfected cells; host or cells: T-REx 293
T3 sequence (O00222 34-908): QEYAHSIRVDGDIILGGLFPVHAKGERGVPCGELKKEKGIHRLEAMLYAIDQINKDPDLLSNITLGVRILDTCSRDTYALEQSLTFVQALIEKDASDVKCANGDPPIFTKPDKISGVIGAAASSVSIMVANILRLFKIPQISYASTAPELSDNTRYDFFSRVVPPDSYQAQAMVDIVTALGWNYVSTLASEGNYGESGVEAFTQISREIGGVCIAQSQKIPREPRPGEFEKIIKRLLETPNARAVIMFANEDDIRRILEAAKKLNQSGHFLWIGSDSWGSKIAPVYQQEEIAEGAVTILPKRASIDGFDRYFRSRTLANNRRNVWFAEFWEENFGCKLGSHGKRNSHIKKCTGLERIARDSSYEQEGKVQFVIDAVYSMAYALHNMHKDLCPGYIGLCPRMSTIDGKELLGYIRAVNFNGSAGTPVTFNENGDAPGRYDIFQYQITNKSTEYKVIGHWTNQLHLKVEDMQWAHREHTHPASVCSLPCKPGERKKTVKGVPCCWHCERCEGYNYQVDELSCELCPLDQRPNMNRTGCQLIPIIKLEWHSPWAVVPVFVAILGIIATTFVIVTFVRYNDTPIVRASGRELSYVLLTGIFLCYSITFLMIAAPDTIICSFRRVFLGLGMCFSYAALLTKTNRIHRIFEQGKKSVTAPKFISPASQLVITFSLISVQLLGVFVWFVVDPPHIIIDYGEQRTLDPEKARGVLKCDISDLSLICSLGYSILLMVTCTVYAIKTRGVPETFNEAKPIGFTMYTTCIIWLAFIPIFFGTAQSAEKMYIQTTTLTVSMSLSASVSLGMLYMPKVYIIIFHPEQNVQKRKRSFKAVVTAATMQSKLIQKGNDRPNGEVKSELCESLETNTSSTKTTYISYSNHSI
Experimental: as §2, §3, §1

[5] = tested on: Salmonella typhimurium strains TA98 and TA100; assay type: cell-based; conditions: TA98 and TA100, with and without S9, ≤ 30 µM
Experimental: The primary assessment of the cardiotoxic risk and mutagenic potential of the six selected 1,2,4-oxadiazole derivatives was performed in the hERG channel assay and the mini-AMES test, respectively. The mutagenicity potential was determined in strains TA98 (frameshift mutation) and TA100 (base-pair substitution) of Salmonella typhimurium in the presence and absence of an exogenous metabolic activation system (rat liver S9 fraction) containing mammalian microsomal enzymes.
The Ames microplate fluctuation protocol (MPF) assay was performed with Salmonella typhimurium strains TA98 and TA100, […]. The bacterial strain as well as the exposure and indicator medium were obtained from Xenometrix AG (Allschwil, Switzerland). […] After the addition of indicator medium, each well of the 24-well plate was aliquoted into 48 wells of a 384-well plate.
The occurrence of reversion events to histidine prototrophy was observed as the growth of bacteria in the indicator medium without histidine after 72 h of incubation at 37 °C. Bacterial growth in 384-well plates was visualised by a colour change of medium from violet to yellow due to the addition of pH indicator dye. The absorbance was measured with a microplate reader (EnSpire) at 420 nm. The reference mutagen NQNO (0.5 mM) was used as a positive control in the experiments. The medium control baseline (MCB) was calculated, as derived from the mean number of revertants in the medium control plus one standard deviation.
AMES test was conducted with two Salmonella typhimurium strains TA98 and TA100 in the presence or absence of liver homogenate S9 to simulate the metabolic conversions of tested compounds with liver enzymes. The AMES MPF 98/100 assay from Xenometrix was performed as described by the supplier. Data were analysed with the AMES MPF calculation […]
(also on this page, place not known: TA10 cal culation TA98 - S9 Revertants TA98 + S9 Revertants - S9 Revertants TA100 + S9 Revertants TA98 - S9 Revertants TA98 + S9 Revertants TA100 - S9 Revertants 0 TA100 + S9 Revertants)

Albino Swiss mice [6] = test: modified stress-induced hyperthermia (SIH) in singly housed mice; assay type: in vivo; conditions: over the doses 5, 10 and 20 mg/kg i.p.
Experimental: (§4) The compounds were dissolved in a small amount of 100% EtOH and then adjusted with 20% cyclodextrin, and the pH was adjusted to 6.0. The investigated compounds were administered intraperitoneally (i.p.) 60 min before the behavioural test. Control drugs i.e. diazepam, clozapine and imipramine (Sigma–Aldrich, St. Louis, USA), were administered i.p. 60 min before the behavioural test. Cyclodextrin (20%) was used as a vehicle. All solutions were prepared immediately prior to the experiments and were administered at a constant volume of 10 ml/kg.
The procedure for modified stress-induced hyperthermia was adapted from Van der Heyden[93] and based on the procedure introduced by Borsini[94]. Each experimental group consisted of eight to ten animals. The animals were housed individually in a 26 × 21 × 14 cm Macolon cage 24 h before testing. For this assay, the body temperature was measured for each mouse at t = 0 min (T1) and t = +15 min (T2). Albino Swiss mice were placed into a new cage immediately following T1, with the difference in temperature (T2−T1) used as the measure of stress-induced hyperthermia. […] A comparison between T1 in vehicle-treated mice and those administered the test compound was used to determine whether the agent affects body temperature alone. Diazepam (5 mg/kg) was used as the positive control. The rectal temperature was measured to the nearest 0.1 °C with a Physitemp Theralert thermometer, TH-5, Clifton NJ, USA, with the temperature sensor for mice, Type T, Copper-Constantan Thermocouple, Braintree Scientific Inc. The lubricated thermistor probe (2 mm diameter) was inserted 20 mm into the rectum. The mouse was held at the base of the tail during this determination, and the thermistor probe was left in place until a constant reading was obtained for 15 s. The effects of the investigated compounds on the SIH response were investigated after administration of the compounds at doses of 5, 10 and 20 mg/kg.

Albino Swiss mice [7] = test: DOI-induced head twitch test (HTR); assay type: in vivo; conditions: over the doses 2.5, 5 and 10 mg/kg i.p.; DOI 2.5 mg/kg i.p.
Experimental: as §4
The experiments were performed according to the procedure described in our previous studies[75]^,[80]. Briefly, to habituate mice to the experimental environment, each animal was transferred to a 12 cm (diameter) × 20 cm (height) glass cage lined with sawdust 30 min before treatment. Test compounds were administered intraperitoneally (i.p.) at doses of 2.5, 5, and 10 mg/kg body weight 60 min before the test was performed. The head twitch response (HTR) in mice was induced by DOI (2.5 mg/kg, i.p.). Immediately after treatment, the number of head twitches was counted during a 20 min session. Haloperidol and clozapine were used as the reference compounds at active doses of 0.2 and 5 mg/kg, respectively.

DOI-induced HTR = tested on: DOI-induced HTR; set-up: method as in PMID 24947466; conditions: medium dose of 3, 10 and 30 mg/kg; cited from earlier work

O=C(Nc1cc(Cl)cc(Cl)c1)[C@H]1CCCC[C@H]1C(=O)O [VU0155041]
effect on forskolin-induced cAMP accumulation in mock cells [2]: no effects | EC50 (mGlu4 receptor [1]; reference ago-PAM, read-out: agonist activity at mGlu4 receptor, EC50): 2500 nM

Cc1cc(NC(=O)c2ccccn2)ccc1-c1noc(-c2ccccc2Cl)n1 [Compound 62, N-(4-(5-(2-chlorophenyl)-1,2,4-oxadiazol-3-yl)-3-methylphenyl)picolinamide]
EC50 (mGlu4 receptor [3]): 308 nM | Emax (mGlu4 receptor [3]): 135% | Fold shift of L-Glu dose-response curve (mGlu4 receptor [3]): 3.3 (0.34)^d | agonistic action at mGlu4 receptor (mGlu4 receptor [4]): lacked agonistic action | agonistic activity at mGlu7 receptor (mGlu7 receptor): lacked agonistic action | agonistic activity at mGlu8 receptor (mGlu8 receptor): lacked agonistic action | mutagenic activity (mini-AMES) [5]: no mutagenic potential | effect on SIH response (Albino Swiss mice [6]): significant anxiolytic- and antipsychotic-like properties; also recorded: significantly reduced SIH responses at all three doses; also recorded: at all doses significantly reduced the SIH response | effect on DOI-induced HTR (Albino Swiss mice [7]): significant anxiolytic- and antipsychotic-like properties; also recorded: at all doses significantly reduced; also recorded: Clear dose-response effects; also recorded: clear dose-dependent response and high potency; also recorded: comparable to that of clozapine

O=C(Nc1ccccn1)C12CC1C(=NO)c1ccccc1O2 (centres unmarked) [VU0359516]
EC50 (mGlu4 receptor [1]; PAM, read-out: EC50 (mGlu4 receptor PAM)): 380 nM

FC(F)(F)c1nccc2cc(Nc3n[nH]c4ncccc34)ccc12 [Valiglurax]
EC50 (mGlu4 receptor [1]; PAM, read-out: mGlu4 receptor PAM potency EC50): 64.6 nM

O=C(Nc1ccc(-c2noc(-c3ccccc3)n2)c(Cl)c1)c1ccccn1 [Compound 49]
EC50 (mGlu4 receptor [3]): 352 nM | Emax (mGlu4 receptor [3]): 123% | Fold shift of L-Glu dose-response curve (mGlu4 receptor [3]): 6.77 (0.53)^d | agonistic activity at mGlu7 receptor (mGlu7 receptor): direct agonistic activity | mutagenic activity (mini-AMES) [5]: no mutagenic potential | effect on SIH response (Albino Swiss mice [6]): not effective | effect on DOI-induced HTR (Albino Swiss mice [7]): not effective; also recorded: no influence

O/N=c1\cc(-c2cc3sccc3cn2)oc2ccc(CCCN3CCOCC3)cc12 [PXT002331]
EC50 (mGlu4 receptor [1]; PAM, read-out: mGlu4 PAM potency EC50): 46 nM

Cc1ccnc(Nc2nc(-c3cn[nH]c3)c(C)s2)n1 [ADX88178]
reduction of DOI-induced HTR (DOI-induced HTR): ≤ 30%
